In patent publication US20240300959A1, “BALASUBRAMIDE DERIVATIVE AND USE THEREOF IN PREPARATION OF MEDICINE FOR TREATING ACUTE LUNG INJURY” (Guangdong Pharmaceutical University, priority 2023, published 2024):
Read-outs that look alike come from different tables or passages of the source.

Key:
[1] = tested on: TNF-α in RAW264.7 macrophages stimulated by lipopolysaccharide; experiment: TNF-α ELISA in cell supernatant of LPS-stimulated RAW264.7 macrophages; type: cell-based, mice
Experimental: RAW264.7 cells were inoculated into a 96-well plate at a density of 1×10^5 per well. When the cell density was 70%-80%, 18 balasubramide derivatives were prepared into 10 mM working solutions with DMSO, respectively, and then used to pretreat mononuclear macrophages RAW264.7 of mice at a final concentration of 10 μM. After 3 h, lipopolysaccharide (LPS, 100 ng/mL) was added into all wells for action for 2 h except for a control group. A supernatant was collected for later use, and the expression level of an inflammatory factor TNF-α in the cell supernatant was detected according to an operation instruction of a commercial ELISA kit.
RAW264.7 cells were inoculated into a 96-well plate at a density of 1×10^5 per well. When the cell density was 70%-80%, the RAW264.7 cells were pretreated with (+)3C-20 ([…]). After 3 h, lipopolysaccharide (LPS, 100 ng/mL) was added into all wells for action for 2 h except for a control group. The expression level of an inflammatory factor TNF-α in a cell supernatant was detected according to an operation instruction of a commercial ELISA kit, and the cell viability at different administration concentrations of (+)3C-20 was determined according to an operation instruction of a CCK-8 kit.

[2] = tested on: inflammation genes in RAW264.7 macrophages stimulated by lipopolysaccharide; experiment: qPCR expression level of inflammation genes in LPS-stimulated RAW264.7 macrophages; type: cell-based, mice; details: RAW264.7, LPS
Experimental: RAW264.7 cells were inoculated into a 24-well plate at a density of 5×10^5 per well. When the cell density was 70%-80%, the RAW264.7 cells were pretreated with (+)3C-20 (5 μM, 10 μM, 20 μM). After 3 h, lipopolysaccharide (LPS, 100 ng/mL) was added into all wells for action for 2 h except for a control group. A supernatant was discarded, and the cells at the bottom of the plate were fully lysed with Trizol (Nanjing Vazyme, R401-01). RNA was extracted according to an RNA extraction instruction, and subjected to reverse transcription to obtain cDNA, followed by qPCR according to an amplification method at 95° C. for a total of 5 min (at 95° C. for 10 s, and at 60° C. for 30 s) in 40 cycles, and finally statistical calculation was performed by ΔCt.

[3] = tested on: mice with acute lung injury caused by intratracheal instillation of lipopolysaccharide; experiment: Acute lung injury caused by lung exposure to bacterial endotoxin (intratracheal instillation of LPS); type: in vivo, ICR mice; details: for Content of TNF-α in a lung tissue homogenate (% of Model) / Area percentage of alveolar cells (%) / Lung index (%): 6 h after intratracheal LPS; for Area percentage of alveolar cells (%): H&E lung sections; for Change multiple of COX-2 / Change multiple of IL-1β / Change multiple of IL-6 / Change multiple of TNF-α / Change multiple of iNOS: lung tissue RT-PCR; for Body weight (Day 1) / Body weight (Day 2) / Body weight (Day 3): intratracheal LPS model, in g (unit assumed)
Experimental: Grouping, administration and modeling of animals: Male ICR mice were used as experimental animals, which were randomly divided into a control group, a model group, a positive administration group and administration groups according to the body weight. The control group and the model group were administered with a solvent by intraperitoneal injection (the solvent was prepared from DMSO, Kolliphor HS15 and Saline at a ratio of 1:2:7), the positive administration group was administered with 5 mg/kg dexamethasone by intraperitoneal injection, and the administration groups were administered with (+)3C-20 at a concentration of 10 mg/kg and 50 mg/kg, respectively, by intraperitoneal injection. The dexamethasone and the (+)3C-20 were dissolved in the above solvent and were clear and transparent. The administration was continued for 3 days. 2 h after the last administration, the mice were anesthetized with 2.5% isoflurane, necks were disinfected, cortices of the necks were cut, and tracheae were separated. All other groups were administered with 50 μL of 10 mg/mL LPS (LPS dissolved in Saline) at a dose of 20 mg/kg by instillation while the control group was administered with 50 μL of Saline by intratracheal instillation (it.), and the cortices were sutured. 6 h after the instillation of LPS, the mice were sacrificed, and serum and lung tissues were taken for later use. Body weight and lung index: The mice were weighed and randomly divided on day 1 and continuously weighed for 3 days before administration. 2 h after the last administration, the mice were administered with 50 μL of […] LPS by intratracheal instillation. 6 h later, the mice were dissected, and the lungs were taken and weighed.
On day 3, 6 h after the intratracheal instillation of LPS, a part of the mice were subjected to perfusion with PBS and treated with paraformaldehyde to fix the right lobe of the lungs, another part of the mice were dissected to obtain lungs, and the lungs were frozen with liquid nitrogen for later use. The fixed right lungs were stained with hematoxylin-eosin (H&E) after dehydration, paraffin embedding and sectioning. 40 mg of the frozen lungs were cut, 300 μL of an RIPA lysis buffer was added thereto and homogenized by starting for 45 s and stopping for 15 s at a frequency of 60 Hz in 4 cycles for full lysis, and then centrifuged at 12,000 rpm at 4° C. A supernatant was taken, the protein concentration was calibrated and adjusted with a BCA protein assay kit, and then the level of an inflammatory factor TNF-α in lung tissue homogenates of various groups was detected by a commercial TNF-α ELISA kit. Results are shown in Table 10, FIG. 10-1 and FIG. 10-2.
A small amount of frozen lung tissues were taken, a Trizol lysis reagent was added thereto and fully ground, RNA was extracted according to an operation instruction of an RNA extraction kit, and the expression of inflammation related genes in the lung tissues was detected by an RT-PCR technology. Experimental results are shown in Table 11, FIG. 11-1 and FIG. 11-2.

[4] = 10 mg/kg i.p., intratracheal LPS
[5] = 50 mg/kg i.p., intratracheal LPS

For `O=C(CCc1ccc(C(F)(F)F)cc1)O[C@@H]1C(=O)NCCc2c([nH]c3ccccc23)[C@H]1c1ccc(C(F)(F)F)cc1` [(+)-3C-20], the “anti-inflammatory activity (inhibition of expression of TNF-α in macrophages), in words” value ([1]; 10 μM, RAW264.7, LPS) was “better anti-inflammatory activity than other derivatives”, the activity at 0.1 µM ([1]; Mus musculus, RAW264.7, 0.1 μM, RAW264.7, LPS 100 ng/mL, read-out: Percentage of TNF-α in a model group (%)) was 99.83 ± 0.89% and the activity at 0.5 µM ([1]; Mus musculus, RAW264.7, 0.5 μM, RAW264.7, LPS 100 ng/mL, read-out: Percentage of TNF-α in a model group (%)) was 98.1 ± 1.56%. It also gave an activity at 1 µM ([1]; Mus musculus, RAW264.7, 1 μM, RAW264.7, LPS 100 ng/mL, read-out: Percentage of TNF-α in a model group (%)) of 94.38 ± 0.45%, an activity at 2 µM ([1]; Mus musculus, RAW264.7, 2 μM, RAW264.7, LPS 100 ng/mL, read-out: Percentage of TNF-α in a model group (%)) of 88.6% and an activity at 5 µM ([1]; Mus musculus, RAW264.7, 5 μM, RAW264.7, LPS 100 ng/mL, read-out: Percentage of TNF-α in a model group (%)) of 83.7%. For the same compound, the activity at 10 µM ([1]; Mus musculus, RAW264.7, 10 μM, RAW264.7, LPS 100 ng/mL (Table 3), read-out: Percentage of TNF-α in a model group (%)) was 51.2%, the activity at 20 µM ([1]; Mus musculus, RAW264.7, 20 μM, RAW264.7, LPS 100 ng/mL, read-out: Percentage of TNF-α in a model group (%)) was 39.4% and the activity at 10 µM ([1]; Mus musculus, RAW264.7, 2 h, 10 μM, 3 h pretreatment, LPS 100 ng/mL 2 h, RAW264.7, read-out: Percentage of TNF-α in a model group (%)) was 39.9 ± 2.88%. The “effective dose for inhibiting the expression of TNF-α in the macrophages” value ([1]; RAW264.7, LPS) was 2 to 20 µM, the “Change multiple of COX-2” value ([2]; 5 μM) was 4.20 ± 0.16 and the “Change multiple of IL-1β” value ([2]; 5 μM) was 62.02 ± 7.52. The “Change multiple of IL-6” value ([2]; 5 μM) was 23.17 ± 0.9, the “Change multiple of TNF-α” value ([2]; 5 μM) was 11.03 ± 0.87 and the “Change multiple of COX-2” value ([2]; 10 μM) was 3.95 ± 0.9. The “Change multiple of IL-1β” value ([2]; 10 μM) was 28.51 ± 0.4, the “Change multiple of IL-6” value ([2]; 10 μM) was 16.09 ± 0.24 and the “Change multiple of TNF-α” value ([2]; 10 μM) was 6.00 ± 1.96. The “Change multiple of COX-2” value ([2]; 20 μM) was 3.49 ± 0.0^8, the “Change multiple of IL-1β” value ([2]; 20 μM) was 12.58 ± 1.72 and the “Change multiple of IL-6” value ([2]; 20 μM) was 6.53 ± 0.31. For the same compound, the “Change multiple of TNF-α” value ([2]; 20 μM) was 4.49 ± 0.81, the “effective dose for anti-inflammatory activity (inhibition of expression of inflammation genes)” value [2] was 5 μM, 10 μM or 20 μM and the “Content of TNF-α in a lung tissue homogenate (% of Model)” value ([3]; 10 mg/kg i.p.) was 90.587 ± 7.374 ^ % of Model. The “Area percentage of alveolar cells (%)” value ([3]; 10 mg/kg i.p.) was 36.611 ± 1.64 %, the “Change multiple of COX-2” value [3, 4] was 2.05 ± 0.38 and the “Change multiple of IL-1β” value [3, 4] was 13.04 ± 1.24. For the same compound, the “Change multiple of IL-6” value [3, 4] was 17.12 ± 2.28, the “Change multiple of TNF-α” value [3, 4] was 13.32 ± 0.94 and the “Change multiple of iNOS” value [3, 4] was 4.56 ± 0.4. The “Lung index (%)” value ([3]; 10 mg/kg intraperitoneal 3 days) was 0.656 ± 0.007%, the “Body weight (Day 1)” value ([3]; 10 mg/kg intraperitoneal) was 27.67 ± 0.38 and the “Body weight (Day 2)” value ([3]; 10 mg/kg intraperitoneal) was 27.44 ± 0.43. For the same compound, the “Body weight (Day 3)” value ([3]; 10 mg/kg intraperitoneal) was 27.93 ± 0.53, the “Content of TNF-α in a lung tissue homogenate (% of Model)” value ([3]; 50 mg/kg i.p.) was 61.408 ± 6.525 % of Model and the “Area percentage of alveolar cells (%)” value ([3]; 50 mg/kg i.p.) was 32.805 ± 0.814 %. For the same compound, the “Change multiple of COX-2” value [3, 5] was 1.14 ± 0.24, the “Change multiple of IL-1β” value [3, 5] was 11.94 ± 1.05 and the “Change multiple of IL-6” value [3, 5] was 15.11 ± 1.58. The “Change multiple of TNF-α” value [3, 5] was 8.56 ± 1.21, the “Change multiple of iNOS” value [3, 5] was 3.75 ± 0.72 and the “Lung index (%)” value ([3]; 50 mg/kg intraperitoneal 3 days) was 0.591 ± 0.011 %. For the same compound, the “Body weight (Day 1)” value ([3]; 50 mg/kg intraperitoneal) was 27.63 ± 0.48, the “Body weight (Day 2)” value ([3]; 50 mg/kg intraperitoneal) was 27.04 ± 0.48 and the “Body weight (Day 3)” value ([3]; 50 mg/kg intraperitoneal) was 27 ± 0.61. For the same compound, the “pathological lung injury compared with the model group, in words” value ([3]; 50 mg/kg, intratracheal LPS) was “obviously relieving pathological lung injury”.
